From US20220388979A1, “QUINOLINE DERIVATIVES AS PROTEIN KINASE INHIBITORS” (B.C.I. PHARMA, priority 2019, published 2022)
Like-named read-outs stand apart in the source and are kept apart here.

What was measured:
CSF1R [1] = target: T1, CSF1R (Homo sapiens, UniProt P07333); experiment: HEK-CSF1R-STAT5-Luc reporter assay, M-CSF stimulated; type: cell-based; set-up: host or cells: HEK293T (ATCC CRL-3216); details: 600 ng/ml M-CSF, 24 h, luciferase, read-out: HEK-CSF1R-STAT5 IC 50
Description: HEK-CSF1R-STAT5-Luc: Exponential growing HEK293T cells (ATCC® CRL-3216™), ectopically expressing human CSF1R receptor (Origene) and five copies of a STAT5 response element (STAT5 RE, promega) that drives transcription of the luciferase reporter were seeded at 5·10^3 per 20 μl of complete DMEM medium. The next day, 2.25 μL of test compound dilution were added to each well and stimulated with 600 ng/ml of M-CSF. The plates were incubated for 24 h at 37° C., 5% CO2. Unstimulated and stimulated cells served as reference for […]. At the end of incubation 25 μl of Steady-Glo® Luciferase Assay System (Promega) were added after 5 min of lysis, luminescence was measured on microplate reader (Envision 2105, Perkinelmer).
(§1) IC50 were measured and experiments were performed at least in duplicate.
(§2) Cell-based assays of compounds CC395-CC397, depicted above, against M-NFS-60 and HEK-CSF1R have been performed following the procedures described in example 29 and 30 and compared with their quinoline analogues 32, 44 and 108.

M-NFS-60 cells = experiment: Cell proliferation in M-NFS-60 leukemia cell line (WST-1); type: cell-based; details: cell proliferation, 72 h, WST-1, read-out: M-NFS-60 IC 50
Description: M-NFS-60: Exponential growing M-NFS-60 cells (ATCC, CRL-1838) were seeded at […]per 200 μl of complete medium with beta-mercaptoethanol and M-CSF (62 ng/mL) or IL34 (500 ng/mL). Twenty μL of test compound dilution were added to each well and the plates were incubated for 72 h at 37° C., 5% CO2. Untreated cells and positive control (0.5% triton X-100, for the last 15 min) served as reference for maximum and minimum viability. At the end of incubation 100 μl of supernatant were removed and replaced by 10 μl of WST-1 solution (Cell Proliferation Reagent WST-1, Roche Applied Science). After 3 h incubation at 37° C., 5% CO2, optical densities were measured at 450 nm and 620 nm for the background on microplate reader (Envision 2105, Perkinelmer).
as §1, §2

PDGFRB = PDGFRB (Homo sapiens, UniProt P09619); experiment: Z'-Lyte biochemical kinase assay (SelectScreen), PDGFRB; details: at 50 nM, in duplicate
Description: (§3) A biochemical assay was performed in order to measure the protein kinase inhibition. The kinase binding assays were performed against different kinases using the SelectScreen Biochemical Kinase Profiling Service® platform (Thermo Fisher Scientific). For all kinases, the Z′-Lyte® biochemical kinase assay technology was used. Inhibitions were measured at 50 nM in duplicate for each compound and are reported in percentage.

PDGFRA = PDGFRA (Homo sapiens, UniProt P16234); experiment: Z'-Lyte biochemical kinase assay (SelectScreen), PDGFRA; details: at 50 nM, in duplicate
Description: as §3

Kit = Kit (Homo sapiens, UniProt P10721); experiment: Z'-Lyte biochemical kinase assay (SelectScreen), Kit; details: at 50 nM, in duplicate
Description: as §3

FLT3 = target: T2, FLT3 (Homo sapiens, UniProt P36888); experiment: Z'-Lyte biochemical kinase assay (SelectScreen), FLT3; details: at 50 nM, in duplicate
T2 sequence (P36888 27-993): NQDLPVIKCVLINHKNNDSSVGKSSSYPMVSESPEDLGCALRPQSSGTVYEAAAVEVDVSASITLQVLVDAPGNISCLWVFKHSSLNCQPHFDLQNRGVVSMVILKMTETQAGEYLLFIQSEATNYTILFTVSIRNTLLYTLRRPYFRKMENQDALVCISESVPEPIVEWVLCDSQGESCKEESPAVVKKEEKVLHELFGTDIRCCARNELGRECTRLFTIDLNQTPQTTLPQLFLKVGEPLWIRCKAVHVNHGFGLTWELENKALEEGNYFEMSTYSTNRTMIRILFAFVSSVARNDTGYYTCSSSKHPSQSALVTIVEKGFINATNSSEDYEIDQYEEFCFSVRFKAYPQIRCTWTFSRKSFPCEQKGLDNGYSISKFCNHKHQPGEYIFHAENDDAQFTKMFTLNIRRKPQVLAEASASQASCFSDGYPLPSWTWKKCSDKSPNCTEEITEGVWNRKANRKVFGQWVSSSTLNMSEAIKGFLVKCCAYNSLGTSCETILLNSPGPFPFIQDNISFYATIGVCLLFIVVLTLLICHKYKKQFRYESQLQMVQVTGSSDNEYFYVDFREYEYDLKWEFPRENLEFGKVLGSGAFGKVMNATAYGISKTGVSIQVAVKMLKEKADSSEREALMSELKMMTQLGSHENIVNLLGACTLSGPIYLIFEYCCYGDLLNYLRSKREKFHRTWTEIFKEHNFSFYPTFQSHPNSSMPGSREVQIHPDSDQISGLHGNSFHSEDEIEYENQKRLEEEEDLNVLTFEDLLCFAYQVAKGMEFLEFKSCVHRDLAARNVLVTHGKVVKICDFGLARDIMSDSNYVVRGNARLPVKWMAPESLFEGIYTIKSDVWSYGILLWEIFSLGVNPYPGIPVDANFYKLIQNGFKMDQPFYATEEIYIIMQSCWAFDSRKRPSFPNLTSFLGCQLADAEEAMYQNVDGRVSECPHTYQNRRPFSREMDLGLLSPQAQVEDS
Description: as §3

CSF1R [2] = target: T1, CSF1R; experiment: Z'-Lyte biochemical kinase assay (SelectScreen), CSF1R; details: at 50 nM, in duplicate
Description: as §3

Chain of Kit (P10721 26-976): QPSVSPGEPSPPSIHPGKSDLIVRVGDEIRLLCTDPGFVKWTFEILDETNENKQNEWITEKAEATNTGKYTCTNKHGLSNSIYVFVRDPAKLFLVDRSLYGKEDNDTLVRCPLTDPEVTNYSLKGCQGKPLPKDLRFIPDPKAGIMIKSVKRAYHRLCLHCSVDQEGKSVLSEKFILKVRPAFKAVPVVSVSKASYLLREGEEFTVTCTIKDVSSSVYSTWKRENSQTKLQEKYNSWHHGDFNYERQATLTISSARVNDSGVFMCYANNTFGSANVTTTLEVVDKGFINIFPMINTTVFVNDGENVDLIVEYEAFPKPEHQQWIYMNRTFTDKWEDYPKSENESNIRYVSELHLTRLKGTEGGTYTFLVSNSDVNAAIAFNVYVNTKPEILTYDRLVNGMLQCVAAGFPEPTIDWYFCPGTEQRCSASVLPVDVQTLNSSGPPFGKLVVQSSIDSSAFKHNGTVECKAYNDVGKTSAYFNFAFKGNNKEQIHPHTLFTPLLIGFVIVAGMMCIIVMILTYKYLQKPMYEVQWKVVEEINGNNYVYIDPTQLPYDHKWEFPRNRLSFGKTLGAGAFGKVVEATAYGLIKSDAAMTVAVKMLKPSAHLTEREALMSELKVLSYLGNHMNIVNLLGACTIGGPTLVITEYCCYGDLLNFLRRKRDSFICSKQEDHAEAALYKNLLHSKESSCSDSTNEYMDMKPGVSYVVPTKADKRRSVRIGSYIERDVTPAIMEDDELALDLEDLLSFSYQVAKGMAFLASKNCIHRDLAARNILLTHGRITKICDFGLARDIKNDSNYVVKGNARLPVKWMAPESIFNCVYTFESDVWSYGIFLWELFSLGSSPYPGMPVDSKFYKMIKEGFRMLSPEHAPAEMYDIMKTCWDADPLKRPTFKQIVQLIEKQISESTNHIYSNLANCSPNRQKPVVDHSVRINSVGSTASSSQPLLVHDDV
Chain of PDGFRA (P16234 24-1089): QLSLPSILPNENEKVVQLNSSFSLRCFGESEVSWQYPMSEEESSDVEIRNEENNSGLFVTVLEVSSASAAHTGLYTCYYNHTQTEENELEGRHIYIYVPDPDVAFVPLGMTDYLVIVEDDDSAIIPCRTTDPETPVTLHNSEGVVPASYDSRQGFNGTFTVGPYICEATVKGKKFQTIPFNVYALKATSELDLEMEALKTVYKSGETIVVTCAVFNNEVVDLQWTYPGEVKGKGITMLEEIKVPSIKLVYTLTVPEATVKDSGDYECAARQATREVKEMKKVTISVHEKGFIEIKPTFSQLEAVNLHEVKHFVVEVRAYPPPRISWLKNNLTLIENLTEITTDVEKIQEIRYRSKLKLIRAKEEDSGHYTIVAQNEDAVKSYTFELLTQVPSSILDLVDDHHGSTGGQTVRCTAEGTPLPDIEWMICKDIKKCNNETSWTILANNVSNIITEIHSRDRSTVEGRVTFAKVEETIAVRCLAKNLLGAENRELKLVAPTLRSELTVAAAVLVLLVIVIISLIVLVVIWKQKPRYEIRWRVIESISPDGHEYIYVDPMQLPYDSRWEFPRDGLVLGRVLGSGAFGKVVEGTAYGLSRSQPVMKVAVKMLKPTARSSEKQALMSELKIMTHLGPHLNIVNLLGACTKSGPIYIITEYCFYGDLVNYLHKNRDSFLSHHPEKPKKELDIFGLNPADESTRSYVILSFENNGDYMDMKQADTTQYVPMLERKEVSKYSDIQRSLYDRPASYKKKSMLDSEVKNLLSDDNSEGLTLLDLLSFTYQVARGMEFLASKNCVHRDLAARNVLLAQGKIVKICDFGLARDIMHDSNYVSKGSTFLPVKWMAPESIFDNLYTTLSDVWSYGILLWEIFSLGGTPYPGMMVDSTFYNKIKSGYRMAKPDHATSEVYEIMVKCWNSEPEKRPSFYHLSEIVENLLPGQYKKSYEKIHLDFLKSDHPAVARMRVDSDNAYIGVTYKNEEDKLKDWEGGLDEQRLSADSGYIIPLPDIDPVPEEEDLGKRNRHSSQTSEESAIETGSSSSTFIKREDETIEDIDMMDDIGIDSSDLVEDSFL
T1 sequence (P07333 20-972): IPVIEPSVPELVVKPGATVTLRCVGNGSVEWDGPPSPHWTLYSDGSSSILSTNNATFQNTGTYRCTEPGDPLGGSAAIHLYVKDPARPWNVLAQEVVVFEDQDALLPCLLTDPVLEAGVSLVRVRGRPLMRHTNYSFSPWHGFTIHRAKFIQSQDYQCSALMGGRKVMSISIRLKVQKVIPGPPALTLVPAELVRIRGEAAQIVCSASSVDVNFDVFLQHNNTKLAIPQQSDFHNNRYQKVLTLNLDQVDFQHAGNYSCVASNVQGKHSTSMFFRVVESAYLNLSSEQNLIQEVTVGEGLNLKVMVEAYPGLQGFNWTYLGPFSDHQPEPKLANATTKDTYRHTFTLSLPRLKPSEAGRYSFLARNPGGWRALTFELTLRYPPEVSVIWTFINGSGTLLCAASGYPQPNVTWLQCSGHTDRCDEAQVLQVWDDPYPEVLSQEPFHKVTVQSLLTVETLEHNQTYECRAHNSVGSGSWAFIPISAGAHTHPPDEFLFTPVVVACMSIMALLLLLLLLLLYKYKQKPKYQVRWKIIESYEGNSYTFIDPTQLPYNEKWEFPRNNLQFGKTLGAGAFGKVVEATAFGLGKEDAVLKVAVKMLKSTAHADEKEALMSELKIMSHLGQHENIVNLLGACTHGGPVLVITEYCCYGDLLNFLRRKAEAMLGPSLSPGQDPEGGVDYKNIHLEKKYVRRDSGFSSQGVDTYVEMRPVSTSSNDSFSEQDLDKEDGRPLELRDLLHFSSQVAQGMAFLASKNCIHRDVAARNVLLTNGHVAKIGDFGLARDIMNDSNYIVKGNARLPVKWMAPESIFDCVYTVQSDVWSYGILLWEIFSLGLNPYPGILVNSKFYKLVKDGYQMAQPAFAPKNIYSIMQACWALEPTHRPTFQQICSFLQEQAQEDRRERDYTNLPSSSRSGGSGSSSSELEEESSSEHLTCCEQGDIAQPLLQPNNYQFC
Chain of PDGFRB (P09619 33-1106): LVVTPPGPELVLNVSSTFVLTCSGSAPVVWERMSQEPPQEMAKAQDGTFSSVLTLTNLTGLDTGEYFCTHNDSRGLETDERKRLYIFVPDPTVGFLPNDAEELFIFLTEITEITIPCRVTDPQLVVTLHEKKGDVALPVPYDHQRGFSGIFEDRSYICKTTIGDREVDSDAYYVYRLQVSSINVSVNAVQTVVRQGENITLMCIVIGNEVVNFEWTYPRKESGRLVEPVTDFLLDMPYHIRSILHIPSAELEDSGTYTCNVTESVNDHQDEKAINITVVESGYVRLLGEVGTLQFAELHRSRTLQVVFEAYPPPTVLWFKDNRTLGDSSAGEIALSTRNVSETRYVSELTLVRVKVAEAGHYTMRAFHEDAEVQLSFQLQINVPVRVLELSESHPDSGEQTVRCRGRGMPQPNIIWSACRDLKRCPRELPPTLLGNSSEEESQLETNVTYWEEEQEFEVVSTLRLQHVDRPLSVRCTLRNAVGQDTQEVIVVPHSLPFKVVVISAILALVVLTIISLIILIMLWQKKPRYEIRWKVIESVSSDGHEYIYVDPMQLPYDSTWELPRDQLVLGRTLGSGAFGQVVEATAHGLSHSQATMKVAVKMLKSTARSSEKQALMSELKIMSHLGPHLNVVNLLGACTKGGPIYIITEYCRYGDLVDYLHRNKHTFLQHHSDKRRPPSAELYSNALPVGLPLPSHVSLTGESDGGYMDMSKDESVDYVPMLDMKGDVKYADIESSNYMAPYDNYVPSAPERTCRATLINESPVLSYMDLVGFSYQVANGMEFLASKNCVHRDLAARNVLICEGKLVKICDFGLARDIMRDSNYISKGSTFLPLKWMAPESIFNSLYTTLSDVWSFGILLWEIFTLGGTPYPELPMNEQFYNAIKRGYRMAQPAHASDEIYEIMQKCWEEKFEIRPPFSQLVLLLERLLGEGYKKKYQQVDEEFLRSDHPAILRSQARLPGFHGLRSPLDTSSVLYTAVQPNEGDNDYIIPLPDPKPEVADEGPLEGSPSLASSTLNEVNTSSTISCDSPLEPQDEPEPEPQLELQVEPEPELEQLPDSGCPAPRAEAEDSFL

IC50 (CSF1R [1]; Table 10) [µM]	IC50 (M-NFS-60 cells; Table 10) [µM]	IC50 (CSF1R [1]; Table 9) [µM]	IC50 (M-NFS-60 cells; Table 9) [µM]	inhibition at 0.05 µM (PDGFRB) [%]	inhibition at 0.05 µM (PDGFRA) [%]	inhibition at 0.05 µM (Kit) [%]	inhibition at 0.05 µM (FLT3) [%]	inhibition at 0.05 µM (CSF1R [2]) [%]	Compound
3.54	5.21	–	–	–	–	–	–	–	COc1cc2nccc(Oc3cccc(NC(=O)Cc4ccncc4)c3)c2cc1OC [CC399, reference compound]
2.27	4.21	–	–	–	–	–	–	–	COc1cc2nccc(Oc3cccc(CC(=O)NCc4ccncc4)c3)c2cc1OC [CC400, reference compound]
3.85	7.51	–	–	–	–	–	–	–	COc1cc2nccc(Oc3cccc(CC(=O)Nc4ccncc4)c3)c2cc1OC [CC401, reference compound]
–	–	0.926	0.636	–	–	–	–	–	COc1ccc2c(Oc3cccc(C(=O)NCc4ccncc4)c3C)ncnc2c1 [CC 395, 3-(7-methoxyquinazolin-4-yl)oxy-2-methyl-N-(4-pyridylmethyl)benzamide, reference compound]
–	–	0.6	0.415	–	–	–	–	–	COc1ccc2c(Oc3cccc(C(=O)NCc4ccncc4F)c3C)ncnc2c1 [CC 396, N-[(3-fluoro-4-pyridyl)methyl]-3-(7-methoxyquinazolin-4-yl)oxy-2-methyl-benzamide, reference compound]
–	–	4.15	1.26	–	–	–	–	–	Cc1c(Oc2ncnc3cc(Cl)ccc23)cccc1C(=O)NCc1ccncc1 [CC 397, 3-(7-chloroquinazolin-4-yl)oxy-2-methyl-N-(4-pyridylmethyl)benzamide, reference compound]
–	–	–	–	54	16	34	37	91	COc1cc2nccc(Oc3cccc(C(=O)NCc4ccccc4)c3)c2cc1OC [compound 84]
–	–	–	–	28	22	31	26	85	COc1ccc2c(Oc3cccc(C(=O)NCc4ccccc4)c3)ccnc2c1 [compound 85]
–	–	–	–	53	31	30	29	85	COc1ccc2c(Oc3cc(F)cc(C(=O)NCc4ccccc4OC)c3)ccnc2c1 [compound 88]
–	–	–	–	48	49	21	36	86	COc1ccccc1CNC(=O)c1cc(F)cc(Oc2ccnc3cc(OC)c(OC)cc23)c1 [compound 89]
–	–	–	–	28	28	9	26	77	COc1cc2nccc(Oc3cc(F)cc(C(=O)N[C@H](C)C4CCCCC4)c3)c2cc1OC [compound 90]
–	–	–	–	60	24	13	50	94	COc1ccccc1CNC(=O)c1ccc(F)c(Oc2ccnc3cc(OC)c(OC)cc23)c1 [compound 92]
–	–	–	–	24	23	2	3	82	COc1cc2nccc(Oc3cc(C(=O)N[C@H](C)C4CCCCC4)ccc3F)c2cc1OC [compound 93]
–	–	–	–	45	30	32	27	93	COc1cc2nccc(Oc3cc(C(=O)NCc4cccc(F)c4)ccc3F)c2cc1OC [compound 94]
–	–	–	–	23	6	5	6	79	COc1ccc2c(Oc3cc(C(=O)NCc4ccncc4)ccc3F)ccnc2c1 [compound 98]
–	–	–	–	20	17	0	26	75	COc1ccccc1CNC(=O)c1ccc(F)c(Oc2ccnc3ccccc23)c1 [compound 99]
–	–	–	–	40	25	27	37	81	O=C(NCc1cccc(F)c1)c1ccc(F)c(Oc2ccnc3ccccc23)c1 [compound 101]
–	–	–	–	13	-5	7	8	73	Cc1c(Oc2ccnc3ccccc23)cccc1C(=O)NCc1cccc(F)c1 [compound 103]
–	–	–	–	25	22	11	19	85	COc1cc2nccc(Oc3cccc(C(=O)NCc4cccc(F)c4)c3C)c2cc1OC [compound 107]
–	–	–	–	19	11	3	8	83	CN(C)c1ccc2c(Oc3cccc(C(=O)NCc4ccncc4)c3)ccnc2c1 [compound 140]
–	–	–	–	9	11	13	9	61	CNc1ccc2c(Oc3cc(C(=O)NCc4ccncc4)ccc3F)ccnc2c1 [compound 142]
–	–	–	–	32	14	8	3	77	CN(C)c1ccc2c(Oc3cc(C(=O)NCc4ccncc4)ccc3F)ccnc2c1 [compound 143]
–	–	–	–	12	4	0	7	75	CNc1ccc2c(Oc3cccc(C(=O)NCc4ccncc4)c3C)ccnc2c1 [compound 148]
–	–	–	–	15	8	3	12	81	Cc1c(Oc2ccnc3cc(N4CCC4)ccc23)cccc1C(=O)NCc1ccncc1 [compound 150]
–	–	–	–	21	9	4	0	79	CNc1ccc2c(Oc3cccc(C(=O)NCc4cccc(F)c4)c3C)ccnc2c1 [compound 151]
–	–	–	–	25	10	3	13	77	Cc1c(Oc2ccnc3cc(N(C)C)ccc23)cccc1C(=O)NCc1cccc(F)c1 [compound 152]
